Experimental data published in ChEMBL document CHEMBL3885881, “DrugMatrix”.

Species on record: Rattus norvegicus
Experiment: DrugMatrix - Regimen: Daily Repeat
Assay type: toxicity, organism-based, Sprague-Dawley
Set-up: regimen Daily Repeat, gender Male, age 6-8 weeks
Conditions: in vivo, po, route oral GAVAGE, […]; for ABSOLUTE BASOPHIL / ABSOLUTE EOSINOPHIL / ABSOLUTE LYMPHOCYTE / ABSOLUTE MONOCYTE / ABSOLUTE SEGMENTED NEUTROPHIL / BASOPHIL / EOSINOPHIL / ERYTHROCYTE COUNT / HEMATOCRIT / HEMOGLOBIN / LEUKOCYTE COUNT / LYMPHOCYTE / MEAN CORPUSCULAR HEMOGLOBIN / MEAN CORPUSCULAR HEMOGLOBIN CONCENTRATION / MEAN CORPUSCULAR VOLUME / MONOCYTE / NEUTROPHIL / NUCLEATED RED BLOOD CELLS / PLATELET COUNT: tissue Blood; for ALANINE AMINOTRANSFERASE / ALBUMIN / ALKALINE PHOSPHATASE / ASPARTATE AMINOTRANSFERASE / BLOOD UREA NITROGEN / CARBON DIOXIDE / CHLORIDE / CHOLESTEROL / CREATININE / GLUCOSE / LACTATE DEHYDROGENASE / LIPASE / PHOSPHORUS / POTASSIUM / SODIUM / TOTAL BILIRUBIN / TOTAL PROTEIN / URIC ACID: tissue Plasma
[1] = 0 mg/kg, 72 h, dose level Control, time 3 day
[2] = 0 mg/kg, 120 h, dose level Control, time 5 day
[3] = 250 mg/kg, 72 h, dose level Low, time 3 day

SMILES: CC(C)Cc1ccc(CC(=O)O)cc1 [IBUFENAC]
- ABSOLUTE BASOPHIL [1]: 0 CELLS/uL
- ABSOLUTE EOSINOPHIL [1]: 255.83 CELLS/uL
- ABSOLUTE LYMPHOCYTE [1]: 11617.83 CELLS/uL
- ABSOLUTE MONOCYTE [1]: 307.5 CELLS/uL
- ABSOLUTE SEGMENTED NEUTROPHIL [1]: 1902.17 CELLS/uL
- BASOPHIL [1]: 0%
- EOSINOPHIL [1]: 1.83%
- ERYTHROCYTE COUNT [1]: 5.58 x10E6/uL
- HEMATOCRIT [1]: 33.62%
- HEMOGLOBIN [1]: 12.42 G/DL
- LEUKOCYTE COUNT [1]: 14.08 x10E3/uL
- LYMPHOCYTE [1]: 82.67%
- MEAN CORPUSCULAR HEMOGLOBIN [1]: 22.32 pg
- MEAN CORPUSCULAR HEMOGLOBIN CONCENTRATION [1]: 36.98 G/DL
- MEAN CORPUSCULAR VOLUME [1]: 60.4 fL
- MONOCYTE [1]: 2.17%
- NEUTROPHIL [1]: 13.33%
- NUCLEATED RED BLOOD CELLS [1]: 0 /100WBC
- PLATELET COUNT [1]: 1154.67 x10E3/uL
- ALANINE AMINOTRANSFERASE [1]: 64.67 u/L
- ALBUMIN [1]: 4.18 G/DL
- ALKALINE PHOSPHATASE [1]: 382.67 u/L
- ASPARTATE AMINOTRANSFERASE [1]: 123.17 u/L
- BLOOD UREA NITROGEN [1]: 17.67 mg/dL
- CARBON DIOXIDE [1]: 24.33 mmol/L
- CHLORIDE [1]: 101.67 MEQ/L
- CHOLESTEROL [1]: 76.5 mg/dL
- CREATININE [1]: 0.2 mg/dL
- GLUCOSE [1]: 175.33 mg/dL
- LACTATE DEHYDROGENASE [1]: 331 u/L
- LIPASE [1]: 10.17 u/L
- PHOSPHORUS [1]: 12.77 mg/dL
- POTASSIUM [1]: 6.65 MEQ/L
- SODIUM [1]: 145.8 MEQ/L
- TOTAL BILIRUBIN [1]: 0.2 mg/dL
- TOTAL PROTEIN [1]: 6.07 G/DL
- URIC ACID [1]: 1.78 mg/dL
- ABSOLUTE BASOPHIL [2]: 0 CELLS/uL
- ABSOLUTE EOSINOPHIL [2]: 155.33 CELLS/uL
- ABSOLUTE LYMPHOCYTE [2]: 12695.83 CELLS/uL
- ABSOLUTE MONOCYTE [2]: 475.67 CELLS/uL
- ABSOLUTE SEGMENTED NEUTROPHIL [2]: 1989.83 CELLS/uL
- BASOPHIL [2]: 0%
- EOSINOPHIL [2]: 1%
- ERYTHROCYTE COUNT [2]: 5.75 x10E6/uL
- HEMATOCRIT [2]: 34.98%
- HEMOGLOBIN [2]: 12.73 G/DL
- LEUKOCYTE COUNT [2]: 15.32 x10E3/uL
- LYMPHOCYTE [2]: 83%
- MEAN CORPUSCULAR HEMOGLOBIN [2]: 22.17 pg
- MEAN CORPUSCULAR HEMOGLOBIN CONCENTRATION [2]: 36.4 G/DL
- MEAN CORPUSCULAR VOLUME [2]: 60.92 fL
- MONOCYTE [2]: 3%
- NEUTROPHIL [2]: 13%
- NUCLEATED RED BLOOD CELLS [2]: 0 /100WBC
- PLATELET COUNT [2]: 1081.33 x10E3/uL
- ALANINE AMINOTRANSFERASE [2]: 55 u/L
- ALBUMIN [2]: 4.12 G/DL
- ALKALINE PHOSPHATASE [2]: 354.67 u/L
- ASPARTATE AMINOTRANSFERASE [2]: 91 u/L
- BLOOD UREA NITROGEN [2]: 15 mg/dL
- CARBON DIOXIDE [2]: 27.17 mmol/L
- CHLORIDE [2]: 100.5 MEQ/L
- CHOLESTEROL [2]: 71.5 mg/dL
- CREATININE [2]: 0.18 mg/dL
- GLUCOSE [2]: 169.17 mg/dL
- LACTATE DEHYDROGENASE [2]: 324 u/L
- LIPASE [2]: 10.5 u/L
- PHOSPHORUS [2]: 12.07 mg/dL
- POTASSIUM [2]: 6.58 MEQ/L
- SODIUM [2]: 141.92 MEQ/L
- TOTAL BILIRUBIN [2]: 0.12 mg/dL
- TOTAL PROTEIN [2]: 5.88 G/DL
- URIC ACID [2]: 1.6 mg/dL
- ABSOLUTE BASOPHIL [3]: 0 CELLS/uL
- ABSOLUTE EOSINOPHIL [3]: 268.67 CELLS/uL
- ABSOLUTE LYMPHOCYTE [3]: 13501.33 CELLS/uL
- ABSOLUTE MONOCYTE [3]: 489 CELLS/uL
- ABSOLUTE SEGMENTED NEUTROPHIL [3]: 2041 CELLS/uL
- BASOPHIL [3]: 0%
- EOSINOPHIL [3]: 1.67%
- ERYTHROCYTE COUNT [3]: 5.57 x10E6/uL
- HEMATOCRIT [3]: 33.83%
- HEMOGLOBIN [3]: 12.4 G/DL
- LEUKOCYTE COUNT [3]: 16.3 x10E3/uL
- LYMPHOCYTE [3]: 83%
- MEAN CORPUSCULAR HEMOGLOBIN [3]: 22.23 pg
- MEAN CORPUSCULAR HEMOGLOBIN CONCENTRATION [3]: 36.67 G/DL
- MEAN CORPUSCULAR VOLUME [3]: 60.7 fL
- MONOCYTE [3]: 3%
- NEUTROPHIL [3]: 12.33%
- NUCLEATED RED BLOOD CELLS [3]: 0 /100WBC
- PLATELET COUNT [3]: 1296 x10E3/uL
- ALANINE AMINOTRANSFERASE [3]: 64.67 u/L
- ALBUMIN [3]: 4.3 G/DL
- ALKALINE PHOSPHATASE [3]: 362.33 u/L
- ASPARTATE AMINOTRANSFERASE [3]: 94.67 u/L
- BLOOD UREA NITROGEN [3]: 15.67 mg/dL
- CARBON DIOXIDE [3]: 26.67 mmol/L
- CHLORIDE [3]: 103 MEQ/L
- CHOLESTEROL [3]: 79.33 mg/dL
- CREATININE [3]: 0.15 mg/dL
- GLUCOSE [3]: 164.67 mg/dL
- LACTATE DEHYDROGENASE [3]: 128.67 u/L
- LIPASE [3]: 9.67 u/L
- PHOSPHORUS [3]: 11.4 mg/dL
- POTASSIUM [3]: 6.53 MEQ/L
- SODIUM [3]: 146.97 MEQ/L
- TOTAL BILIRUBIN [3]: 0.17 mg/dL
- TOTAL PROTEIN [3]: 6.03 G/DL
- URIC ACID [3]: 1.43 mg/dL
